US9308253B2, “Cancer immunotherapy” (The Johns Hopkins University, priority 2011, dated 2016)

Legend:
TLR4 = settings: cited from earlier work
B16 melanoma = assay: Tumor treatment assay, palpable B16 model; format: in vivo, C57BL/6 mice; settings: palpable B16, single subcutaneous treatment in contralateral limb
Method: IDC-1005 was incubated with irradiated GVAX cells at 4 deg C. for 0.5-2, hours prior to inoculation. GVAX formulated with IDC-1005 is labeled as TEGVAX.
Tumor treatment assay: C57BL/6 mice were injected with 1-5×10^4 B16 in the footpads. Once palpable tumor developed (5-10 days), 100 μl of 10^6 B16 GVAX formulated with or without IDC-1005 were injected subcutaneously into the contralateral limb. The control groups were injected with vehicle. For all these experiments, 10 mice were used per group. […] For all the vaccines, GM-CSF was titered to ensure that GM-CSF expression level ranged from 50-500 ng/10^6 Cells/24 hours. Tumor was measured daily.

[1] = human, in vivo; cited from earlier work

Compound	TH1 type cytokines on activation of dendritic cells (TLR4; murine and human dendritic cells, in vivo and in vitro, versus MPL)	TLR4 agonist strength (TLR4; versus monophosphoryl lipid A)	tumor growth rate / in vivo anti-tumor response (B16 melanoma)	safety / toxicity in patients [1]
CCCCCCCCCCCCCC(=O)O[C@H](CCCCCCCCCCC)CC(=O)O[C@@H]1[C@@H](NC(=O)C[C@H](CCCCCCCCCCC)OC(=O)CCCCCCCCCCCCC)[C@H](OC[C@H]2O[C@H](O)[C@H](NC(=O)C[C@H](O)CCCCCCCCCCC)[C@@H](OC(=O)C[C@H](O)CCCCCCCCCCC)[C@@H]2O)O[C@H](CO)[C@H]1OP(=O)(O)O [GLA, glucopyranosyl lipid A]	more potent in terms of increasing multiple TH1 type cytokines	stronger TLR4 agonist than the monophosphyl lipid A	no in vivo anti-tumor effects	
CCOCc1nc2c(N)nc3ccccc3c2n1CC(C)(C)O [R848, resiquimod]				passed phase 1 trials for safety
ipilimumab: anti-CTLA-4 antibody				grade 3-4 toxicity
